{"source": "patent US20110053773A1", "about": "“METHODS OF IMPROVING NUTRITIONAL VALUE OF PLANTS” (UNIVERSITY OF TENNESSEE RESEARCH FOUNDATION, priority 2009, published 2011)", "key": {"[1]": {"system": "sweet corn variety 'Incredible'", "assay": "Sugar and key antioxidant content of sweet corn (Example 1, Table 15)", "assay_type": "in vivo, Zea mays var. rugosa", "settings": "rates g ai/ha: Nicosulfuron 35, Mesotrione 105, Topramezone 18, Isoxadifen-ethyl 13, all incl. treated check with atrazine 560 g ai/ha + 1% v/v crop oil concentrate", "description": "Herbicide treatments were applied in a water carrier at 23 gallons of solution per acre on a field site near Knoxville, Tenn. and Painter, Va. […] All treatments included a PRE application of atrazine plus metolachlor in order to maintain weed free conditions. In addition, all POST treatments (including the treated check) included atrazine at 560 g ai/ha and crop oil concentrate at 1% v/v. […] Sweet corn was harvested from the center two rows of each four row plot and weighed in the husk."}, "[2]": {"system": "sweet corn (Zea mays var. rugosa) cultivar 'Incredible'", "assay": "Content analysis of sweet corn ears: crude protein, amino acids, detergent fiber, fatty acids, minerals (Example 1)", "assay_type": "in vivo", "settings": "POST at b59 rates; every treatment incl. check also got atrazine 560 g ai/ha + COC 1% v/v; relative to treated check (atrazine), check=0", "description": "Herbicide treatments were applied in a water carrier at 23 gallons of solution per acre on a field site near Knoxville, Tenn. and Painter, Va. Treatments include the following: 1) nicosulfuron at 35 g ai/ha (Accent); 2) mesotrione at 105 g ai/ha (Callisto); 3) nicosulfuron at 35 g ai/ha+mesotrione at 105 g ai/ha (Callisto+Accent); 4) tembotrione at 92 g ai/ha+isoxadifen-ethyl at 46 g ai/ha (Laudis); 5) topramezone at 15 g ai/ha (Impact); 6) nicosulfuron at 35 g ai/ha+isoxadifen-ethyl at 9 g ai/ha (Accent Q); 7) nicosulfuron at 35 g ai/ha+isoxadifen-ethyl at 9 g ai/ha+topramezone at 15 g ai/ha (Accent Q+Impact); 8) nicosulfuron 35 g ai/ha+isoxadifen-ethyl at 9 g ai/ha+mesotrione at 105 g ai/ha (Accent Q+Callisto); 9) treated check (atrazine or Aatrex). All treatments included a PRE application of atrazine plus metolachlor in order to maintain weed free conditions. In addition, all POST treatments (including the treated check) included atrazine at 560 g ai/ha and crop oil concentrate at 1% v/v. […] Sweet corn was harvested from the center two rows of each four row plot and weighed in the husk."}, "[3]": {"system": "basil 'Genovese'", "assay": "Content analysis of basil: protein, minerals (Example 4, Tables 10-11)", "assay_type": "in vivo", "settings": "28 DA-A, rates g ai/ha: chlroprifos 3370, chlorothalonil 7900, paclobutrazol 9.7, mepiquat-chloride 37, Isoxadifen 16, Napthalic anhydride 527, + NIS 0.25 % v/v", "experimental": "Greenhouse and laboratory studies were conducted to ascertain the tolerance and nutritional quality differences following postemergence applications of the insecticide chlorpyrifos, the fungicide chlorothalonil, the PGRs mepiquat-chloride and paclobutrazol, and the safeners napthalic anhydride and isoxadifen-ethyl on kale ‘Red Russian’ and basil ‘Genovese’. Visual injury was rated based on general phytotoxicity, chlorosis, and visual stunting and each measurement was based on a percent scale from 0 to 100 where 0 equals no visual response and 100 equals complete plant death. Kale and basil were both harvested approximately 4 weeks after treatments and plants were pooled over replicates for content analysis of crude protein, crude amino acid content, acid detergent fiber, neutral detergent fiber, total fatty acids, and/or key mineral content (including Na, Ca, P, Mg, K, Fe, Mn, Zn, and Cu). In addition, the amounts of key individual amino acids (aspartic acid, threonine, glutamic acid, proline, glycine, cysteine, valine, leucine, isoleucine, methionine, and lysine) and composite classifications of fatty acid (saturated fatty acids, monounsaturated fatty acids, polyunsaturated fatty acids) were also analyzed from these sub-samples for kale (Tables 10-14)."}}}
{"compound": "COc1cc(OC)nc(NC(=O)NS(=O)(=O)c2ncccc2C(=O)N(C)C)n1", "note": "[Nicosulfuron*ACCENT, nicosulfuron]", "values": [{"measurement": "Fructose, percent increase", "setting": "[1]", "value": 48, "unit": "%"}, {"measurement": "Gamma-tocopherol, percent increase", "setting": "[1]", "value": 1, "unit": "%"}, {"measurement": "Glucose, percent increase", "setting": "[1]", "value": 35, "unit": "%"}, {"measurement": "Lutein, percent increase", "setting": "[1]", "value": 9, "unit": "%"}, {"measurement": "Maltose, percent increase", "setting": "[1]", "value": 23, "unit": "%"}, {"measurement": "Sucrose, percent increase", "setting": "[1]", "value": "−4", "unit": "%"}, {"measurement": "Total Sugars, percent increase", "setting": "[1]", "value": 16, "unit": "%"}, {"measurement": "Zeaxanthin, percent increase", "setting": "[1]", "value": 9, "unit": "%"}, {"measurement": "antheraxanthin, percent increase", "setting": "[1]", "value": 15, "unit": "%"}, {"measurement": "Acid DF", "setting": "[2]", "value": "9 % of check"}, {"measurement": "Alanine", "setting": "[2]", "value": "1 % of check"}, {"measurement": "Amino Acid", "setting": "[2]", "value": "−1 % of check"}, {"measurement": "Aspartic ac", "setting": "[2]", "value": "−4 % of check"}, {"measurement": "Cysteine", "setting": "[2]", "value": "0 % of check"}, {"measurement": "Glutamic ac", "setting": "[2]", "value": "−2 % of check"}, {"measurement": "Glycine", "setting": "[2]", "value": "−4 % of check"}, {"measurement": "Isoleucine", "setting": "[2]", "value": "0 % of check"}, {"measurement": "Leucine", "setting": "[2]", "value": "0 % of check"}, {"measurement": "Lysine", "setting": "[2]", "value": "1 % of check"}, {"measurement": "Methionine", "setting": "[2]", "value": "0 % of check"}, {"measurement": "Neutral DF", "setting": "[2]", "value": "4 % of check"}, {"measurement": "Proline", "setting": "[2]", "value": "−7 % of check"}, {"measurement": "Protein", "setting": "[2]", "value": "7 % of check"}, {"measurement": "Threonine", "setting": "[2]", "value": "2 % of check"}, {"measurement": "Valine", "setting": "[2]", "value": "0 % of check"}, {"measurement": "calcium", "setting": "[2]", "value": "0 % of check"}, {"measurement": "copper", "setting": "[2]", "value": "0 % of check"}, {"measurement": "iron", "setting": "[2]", "value": "14 % of check"}, {"measurement": "magnesium", "setting": "[2]", "value": "14 % of check"}, {"measurement": "manganese", "setting": "[2]", "value": "33 % of check"}, {"measurement": "mon fattyac", "setting": "[2]", "value": "15 % of check"}, {"measurement": "phosphorous", "setting": "[2]", "value": "6 % of check"}, {"measurement": "polyfattyac", "setting": "[2]", "value": "12 % of check"}, {"measurement": "potassium", "setting": "[2]", "value": "1 % of check"}, {"measurement": "sat fattyac", "setting": "[2]", "value": "12 % of check"}, {"measurement": "sodium", "setting": "[2]", "value": "21 % of check"}, {"measurement": "tot fattyac", "setting": "[2]", "value": "13 % of check"}, {"measurement": "zinc", "setting": "[2]", "value": "2 % of check"}]}
{"compound": "Cc1c(C(=O)c2cnn(C)c2O)ccc(S(C)(=O)=O)c1C1=NOCC1", "note": "[Topramezone*IMPACT, topramezone]", "values": [{"measurement": "Fructose, percent increase", "setting": "[1]", "value": 63, "unit": "%"}, {"measurement": "Gamma-tocopherol, percent increase", "setting": "[1]", "value": 8, "unit": "%"}, {"measurement": "Glucose, percent increase", "setting": "[1]", "value": 40, "unit": "%"}, {"measurement": "Lutein, percent increase", "setting": "[1]", "value": 0, "unit": "%"}, {"measurement": "Maltose, percent increase", "setting": "[1]", "value": 8, "unit": "%"}, {"measurement": "Sucrose, percent increase", "setting": "[1]", "value": "−18", "unit": "%"}, {"measurement": "Total Sugars, percent increase", "setting": "[1]", "value": 10, "unit": "%"}, {"measurement": "Zeaxanthin, percent increase", "setting": "[1]", "value": "−8", "unit": "%"}, {"measurement": "antheraxanthin, percent increase", "setting": "[1]", "value": 23, "unit": "%"}, {"measurement": "Acid DF", "setting": "[2]", "value": "2 % of check"}, {"measurement": "Alanine", "setting": "[2]", "value": "8 % of check"}, {"measurement": "Amino Acid", "setting": "[2]", "value": "7 % of check"}, {"measurement": "Aspartic ac", "setting": "[2]", "value": "6 % of check"}, {"measurement": "Cysteine", "setting": "[2]", "value": "3 % of check"}, {"measurement": "Glutamic ac", "setting": "[2]", "value": "6 % of check"}, {"measurement": "Glycine", "setting": "[2]", "value": "4 % of check"}, {"measurement": "Isoleucine", "setting": "[2]", "value": "10 % of check"}, {"measurement": "Leucine", "setting": "[2]", "value": "8 % of check"}, {"measurement": "Lysine", "setting": "[2]", "value": "10 % of check"}, {"measurement": "Methionine", "setting": "[2]", "value": "8 % of check"}, {"measurement": "Neutral DF", "setting": "[2]", "value": "7 % of check"}, {"measurement": "Proline", "setting": "[2]", "value": "6 % of check"}, {"measurement": "Protein", "setting": "[2]", "value": "8 % of check"}, {"measurement": "Threonine", "setting": "[2]", "value": "12 % of check"}, {"measurement": "Valine", "setting": "[2]", "value": "9 % of check"}, {"measurement": "calcium", "setting": "[2]", "value": "0 % of check"}, {"measurement": "copper", "setting": "[2]", "value": "0 % of check"}, {"measurement": "iron", "setting": "[2]", "value": "23 % of check"}, {"measurement": "magnesium", "setting": "[2]", "value": "13 % of check"}, {"measurement": "manganese", "setting": "[2]", "value": "38 % of check"}, {"measurement": "mon fattyac", "setting": "[2]", "value": "10 % of check"}, {"measurement": "phosphorous", "setting": "[2]", "value": "8 % of check"}, {"measurement": "polyfattyac", "setting": "[2]", "value": "9 % of check"}, {"measurement": "potassium", "setting": "[2]", "value": "6 % of check"}, {"measurement": "sat fattyac", "setting": "[2]", "value": "8 % of check"}, {"measurement": "sodium", "setting": "[2]", "value": "29 % of check"}, {"measurement": "tot fattyac", "setting": "[2]", "value": "9 % of check"}, {"measurement": "zinc", "setting": "[2]", "value": "4 % of check"}]}
{"compound": "CCOP(=S)(OCC)Oc1nc(Cl)c(Cl)cc1Cl", "note": "[chlroprifos]", "values": [{"measurement": "ADF, Percent Increase Over the Untreated Check (on a % dry matter basis)", "setting": "[3]", "value": 10, "unit": "% check"}, {"measurement": "Calcium, Percent Increase Over the Untreated Check (on a % dry matter basis)", "setting": "[3]", "value": 3, "unit": "% check"}, {"measurement": "Copper, Percent Increase Over the Untreated Check (on a % dry matter basis)", "setting": "[3]", "value": 8, "unit": "% check"}, {"measurement": "Iron, Percent Increase Over the Untreated Check (on a % dry matter basis)", "setting": "[3]", "value": 57, "unit": "% check"}, {"measurement": "Magnesium, Percent Increase Over the Untreated Check (on a % dry matter basis)", "setting": "[3]", "value": 21, "unit": "% check"}, {"measurement": "Manganese, Percent Increase Over the Untreated Check (on a % dry matter basis)", "setting": "[3]", "value": 12, "unit": "% check"}, {"measurement": "NDF, Percent Increase Over the Untreated Check (on a % dry matter basis)", "setting": "[3]", "value": 9, "unit": "% check"}, {"measurement": "Phosphorous, Percent Increase Over the Untreated Check (on a % dry matter basis)", "setting": "[3]", "value": 50, "unit": "% check"}, {"measurement": "Potassium, Percent Increase Over the Untreated Check (on a % dry matter basis)", "setting": "[3]", "value": 27, "unit": "% check"}, {"measurement": "Protein, Percent Increase Over the Untreated Check (on a % dry matter basis)", "setting": "[3]", "value": 32, "unit": "% check"}, {"measurement": "Sodium, Percent Increase Over the Untreated Check (on a % dry matter basis)", "setting": "[3]", "value": 25, "unit": "% check"}, {"measurement": "Soluble protein, Percent Increase Over the Untreated Check (on a % dry matter basis)", "setting": "[3]", "value": 42, "unit": "% check"}, {"measurement": "Zinc, Percent Increase Over the Untreated Check (on a % dry matter basis)", "setting": "[3]", "value": 46, "unit": "% check"}]}
